Target: T1, full-length human PKCι (Homo sapiens, UniProt P41743)
T1 construct: Recombinant, full-length human PKCι expressed in Sf21 insect cells is also commercially available; purchased; host or cells: Sf21 insect cells
T1 sequence (P41743 1-596): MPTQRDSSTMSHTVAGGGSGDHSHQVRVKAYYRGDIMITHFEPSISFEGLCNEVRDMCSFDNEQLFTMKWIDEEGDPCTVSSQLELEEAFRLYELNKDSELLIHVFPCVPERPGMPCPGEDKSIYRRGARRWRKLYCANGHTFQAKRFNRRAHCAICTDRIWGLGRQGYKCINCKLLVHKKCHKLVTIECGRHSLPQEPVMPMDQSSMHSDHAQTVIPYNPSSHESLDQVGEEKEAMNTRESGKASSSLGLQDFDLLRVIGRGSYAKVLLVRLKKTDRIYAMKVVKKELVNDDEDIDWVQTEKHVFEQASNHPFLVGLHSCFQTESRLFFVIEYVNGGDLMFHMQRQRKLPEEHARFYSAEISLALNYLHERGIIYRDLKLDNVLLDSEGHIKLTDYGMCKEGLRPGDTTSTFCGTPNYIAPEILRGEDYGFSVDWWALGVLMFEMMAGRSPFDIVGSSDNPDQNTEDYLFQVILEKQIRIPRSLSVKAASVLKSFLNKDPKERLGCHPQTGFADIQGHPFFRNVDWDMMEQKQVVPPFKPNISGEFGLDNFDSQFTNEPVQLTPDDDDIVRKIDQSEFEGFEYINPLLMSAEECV
Experiment: PKCι IC50 IMAP assay, full-length PKCι at 150 μM ATP
Assay type: biochemical
Conditions: read-out: IC50 in IMAP assay against full length PKCi at 150 μM ATP
Procedure, shortened: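 Compounds in 4% final DMSO are mixed with Sf21-derived full-length human PKCι (typically 15 pM) and 100 nM FAM-labelled pseudosubstrate peptide, then started with 150 μM ATP. Reaction runs 60 min at room temperature, is quenched with IMAP development reagent for 2 h, and fluorescence polarisation is measured to derive IC50.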

SMILES | IC50 [nM]
COc1cncc2nc(-c3ccnc(Nc4cccc(N5CCNCC5)c4)c3)ncc12 [Example 503, [4-(5-Methoxy-pyrido[3,4-d]pyrimidin-2-yl)-pyridin-2-yl]-(3-piperazin-1-yl-phenyl)-amine] | 1000 to 10000
COCC(C)(C)c1cc2c(-c3nc(N4CCNCC4)c4c(C5CCC5)cncc4n3)ccnc2[nH]1 [Example 2109, 5-Cyclobutyl-2-[2-(2-methoxy-1,1-dimethyl-ethyl)-1H-pyrrolo[2,3-b]pyridin-4-yl]-4-piperazin-1-yl-pyrido[3,4-d]pyrimidine] | < 100
c1cc(-c2nc(N3CCNCC3)c3c(C4CC4)cncc3n2)cc(Nc2cnn(C3CCCC3)c2)n1 [Example 796, (1-Cyclopentyl-1H-pyrazol-4-yl)-[4-(5-cyclopropyl-4-piperazin-1-yl-pyrido[3,4-d]pyrimidin-2-yl)-pyridin-2-yl]-amine] | < 100
c1ccc(Nc2cc(-c3nc(N4CCN[C@@H](C5CC5)C4)c4c(C5CC5)cncc4n3)ccn2)cc1 [Example 273, {4-[5-Cyclopropyl-4-((S)-3-cyclopropyl-piperazin-1-yl)-pyrido[3,4-d]pyrimidin-2-yl]-pyridin-2-yl}-phenyl-amine] | < 100
Fc1cccnc1-c1cc2c(-c3nc(N4CCNCC4)c4c(C5CCC5)cncc4n3)ccnc2[nH]1 [Example 2180, 5-Cyclobutyl-2-[2-(3-fluoro-pyridin-2-yl)-1H-pyrrolo[2,3-b]pyridin-4-yl]-4-piperazin-1-yl-pyrido[3,4-d]pyrimidine] | < 100
Fc1cccc(F)c1Nc1cc(-c2nc(N3CCNCC3)c3c(C4CC4)cncc3n2)ccn1 [Example 264, [4-(5-Cyclopropyl-4-piperazin-1-yl-pyrido[3,4-d]pyrimidin-2-yl)-pyridin-2-yl]-(2,6-difluoro-phenyl)-amine] | < 100
COc1cc(F)c(Nc2cc(-c3nc(N4CCNCC4)c4c(C5CC5)cncc4n3)ccn2)c(F)c1 [Example 590, [4-(5-Cyclopropyl-4-piperazin-1-yl-pyrido[3,4-d]pyrimidin-2-yl)-pyridin-2-yl]-(2,6-difluoro-4-methoxy-phenyl)-amine] | < 100
COc1cncc2nc(-c3ccnc(Nc4cc(C#N)ccn4)c3)nc(N3CCN(C)CC3)c12 [Example 397, 2-{4-[5-Methoxy-4-(4-methyl-piperazin-1-yl)-pyrido[3,4-d]pyrimidin-2-yl]-pyridin-2-ylamino}-isonicotinonitrile] | 100 to 1000
O=C(CC(F)(F)F)Nc1cc(-c2nc(N3CCNCC3)c3c(C4CC4)cncc3n2)ccn1 [Example 613, N-[4-(5-Cyclopropyl-4-piperazin-1-yl-pyrido[3,4-d]pyrimidin-2-yl)-pyridin-2-yl]-3,3,3-trifluoro-propionamide] | < 100
COc1cncc2nc(-c3ccnc(NC(=O)c4ccccc4)c3)nc(N3CCNCC3)c12 [Example 212, N-[4-(5-Methoxy-4-piperazin-1-yl-pyrido[3,4-d]pyrimidin-2-yl)-pyridin-2-yl]-benzamide] | < 100
FC(F)(F)c1ncccc1Nc1cc(-c2nc(N3CCNCC3)c3c(C4CC4)cncc3n2)ccn1 [Example 536, [4-(5-Cyclopropyl-4-piperazin-1-yl-pyrido[3,4-d]pyrimidin-2-yl)-pyridin-2-yl]-(2-trifluoromethyl-pyridin-3-yl)-amine] | 1000 to 10000
CN(c1nc(-c2ccnc(Nc3ncc(F)cc3F)c2)nc2cncc(C3CC3)c12)C1CCNCC1(C)C (stereo not drawn) [Example 2196, {5-Cyclopropyl-2-[2-(3,5-difluoro-pyridin-2-ylamino)-pyridin-4-yl]-pyrido[3,4-d]pyrimidin-4-yl}-(3,3-dimethyl-piperidin-4-yl)-methyl-amine] | < 100
COc1cncc2nc(-c3ccnc(Nc4cccc(C(F)(F)F)n4)c3)nc(N3CCNCC3)c12 [Example 449, [4-(5-Methoxy-4-piperazin-1-yl-pyrido[3,4-d]pyrimidin-2-yl)-pyridin-2-yl]-(6-trifluoromethyl-pyridin-2-yl)-amine] | < 100
COc1cncc2nc(-c3ccnc(Nc4ccc(N5CCOCC5)cc4F)c3)nc(N3CCNCC3)c12 [Example 418, (2-Fluoro-4-morpholin-4-yl-phenyl)-[4-(5-methoxy-4-piperazin-1-yl-pyrido[3,4-d]pyrimidin-2-yl)-pyridin-2-yl]-amine] | < 100
O[C@@H]1CN(c2nc(-c3ccnc4[nH]c(C(F)(F)F)cc34)nc3cncc(C4CC4)c23)CC[C@@H]1O (racemic) [Example 1234, (+/−)-(cis)-1-[5-Cyclopropyl-2-(2-trifluoromethyl-1H-pyrrolo[2,3-b]pyridin-4-yl)-pyrido[3,4-d]pyrimidin-4-yl]-piperidine-3,4-diol] | 100 to 1000
N[C@H](CNc1nc(-c2ccncc2)nc2c(-c3ccsc3)nccc12)Cc1ccccc1 [Example 114, N-[(2S)-2-amino-3-phenylpropyl]-2-(pyridin-4-yl)-8-(thiophen-3-yl)pyrido[3,4-d]pyrimidin-4-amine] | 100 to 1000
CC(C)(Nc1cc(-c2nc(N3CCNCC3)c3c(C4CC4)cncc3n2)ccn1)C(F)(F)F [Example 598, [4-(5-Cyclopropyl-4-piperazin-1-yl-pyrido[3,4-d]pyrimidin-2-yl)-pyridin-2-yl]-(2,2,2-trifluoro-1,1-dimethyl-ethyl)-amine] | < 100
CC(C)(O)C#Cc1nccc2c(NCC(N)Cc3ccccc3)nc(-c3ccncc3)nc12 (stereo in doubt) [Example 131, 4-(4-{[(2S)-2-amino-3-phenylpropyl]amino}-2-(pyridin-4-yl)pyrido[3,4-d]pyrimidin-8-yl)-2-methylbut-3-yn-2-ol] | < 100
NC(=O)c1ccc(Nc2cc(-c3nc(N4CCNCC4)c4c(C5CC5)cncc4n3)ccn2)cc1 [Example 742, 4-[4-(5-Cyclopropyl-4-piperazin-1-yl-pyrido[3,4-d]pyrimidin-2-yl)-pyridin-2-ylamino]-benzamide] | < 100
c1cc(-c2nc(N3CCNCC3)c3c(C4CCC4)cncc3n2)c2cc(C3CCCCC3)[nH]c2n1 [Example 2153, 5-Cyclobutyl-2-(2-cyclohexyl-1H-pyrrolo[2,3-b]pyridin-4-yl)-4-piperazin-1-yl-pyrido[3,4-d]pyrimidine] | < 100
Cc1[nH]c2nccc(-c3nc(N4CCNCC4)c4c(C5CC5)cncc4n3)c2c1Cl [Example 2209, 2-(3-Chloro-2-methyl-1H-pyrrolo[2,3-b]pyridin-4-yl)-5-cyclopropyl-4-piperazin-1-yl-pyrido[3,4-d]pyrimidine] | < 100
COc1cncc2nc(-c3ccnc(Nc4ccc(C(F)(F)F)cn4)c3)nc(N3CCNCC3)c12 [Example 368, [4-(5-Methoxy-4-piperazin-1-yl-pyrido[3,4-d]pyrimidin-2-yl)-pyridin-2-yl]-(5-trifluoromethyl-pyridin-2-yl)-amine] | < 100
COc1cncc2nc(-c3ccnc(Nc4ccc(C5CCOCC5)cc4)c3)nc(N[C@@H]3CCNC3)c12 [Example 361, (5-Methoxy-2-{2-[4-(tetrahydro-pyran-4-yl)-phenylamino]-pyridin-4-yl}-pyrido[3,4-d]pyrimidin-4-yl)-(R)-pyrrolidin-3-yl-amine] | < 100
COc1cncc2nc(-c3ccnc(Nc4ccc(C#N)nc4)c3)nc(N3CCNCC3)c12 [Example 384] | 100 to 1000
N[C@H](CNc1nc(-c2ccncc2)nc2c(Cl)nccc12)Cc1ccccc1 [Example 11, N-[(2S)-2-amino-3-phenylpropyl]-8-chloro-2-(pyridin-4-yl)pyrido[3,4-d]-pyrimidin-4-amine] | < 100
C[C@H]1CN(c2nc(-c3ccnc(Nc4nc(F)ccc4F)c3)nc3cncc(C4CCC4)c23)CCN1 [Example 798, {4-[5-Cyclobutyl-4-((S)-3-methyl-piperazin-1-yl)-pyrido[3,4-d]pyrimidin-2-yl]-pyridin-2-yl}-(3,6-difluoro-pyridin-2-yl)-amine] | < 100
CN(C)C(=O)c1ccc(Nc2cc(-c3nc(N4CCNCC4)c4c(C5CC5)cncc4n3)ccn2)cc1 [Example 2003, 4-[4-(5-Cyclopropyl-4-piperazin-1-yl-pyrido[3,4-d]pyrimidin-2-yl)-pyridin-2-ylamino]-N,N-dimethyl-benzamide] | < 100
Fc1cc(Nc2cc(-c3nc(N4CCNCC4)c4c(C5CC5)cncc4n3)ccn2)c(F)c(F)n1 [Example 682, [4-(5-Cyclopropyl-4-piperazin-1-yl-pyrido[3,4-d]pyrimidin-2-yl)-pyridin-2-yl]-(2,3,6-trifluoro-pyridin-4-yl)-amine] | 100 to 1000
C[C@@H](Nc1cc(-c2nc(N3CCNCC3)c3c(C4CC4)cncc3n2)ccn1)c1cccc(F)c1 [Example 644, [4-(5-Cyclopropyl-4-piperazin-1-yl-pyrido[3,4-d]pyrimidin-2-yl)-pyridin-2-yl]-[(R)-1-(3-fluoro-phenyl)-ethyl]-amine] | < 100
CN(c1nc(-c2ccnc(Nc3c(F)cccc3F)c2)nc2cncc(C3CC3)c12)[C@@H]1CCNC1 [Example 2057, {5-Cyclopropyl-2-[2-(2,6-difluoro-phenylamino)-pyridin-4-yl]-pyrido[3,4-d]pyrimidin-4-yl}-methyl-(R)-pyrrolidin-3-yl-amine] | < 100

Source: patent US9914730B2, “Azaquinazoline inhibitors of Atypical protein Kinase C” (Ignyta, Inc., priority 2012, dated 2018)
